Target: c-kit (Homo sapiens (Human), UniProt P10721)
Assay: Mo7e cell proliferation assay (SCF dependent proliferation)
Format: cell-based
Conditions: Mo7e cells stimulated with human recombinant SCF, 48 hours, 1% FBS
Method in brief: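 SCF-dependent proliferation of human Mo7e cells, which express c-kit endogenously. After 48 h at 37° C, viability read by CellTiter Glo luminescence. IC50 taken as concentration giving response halfway between baseline and maximum.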

c-kit, sequence (P10721 26-976): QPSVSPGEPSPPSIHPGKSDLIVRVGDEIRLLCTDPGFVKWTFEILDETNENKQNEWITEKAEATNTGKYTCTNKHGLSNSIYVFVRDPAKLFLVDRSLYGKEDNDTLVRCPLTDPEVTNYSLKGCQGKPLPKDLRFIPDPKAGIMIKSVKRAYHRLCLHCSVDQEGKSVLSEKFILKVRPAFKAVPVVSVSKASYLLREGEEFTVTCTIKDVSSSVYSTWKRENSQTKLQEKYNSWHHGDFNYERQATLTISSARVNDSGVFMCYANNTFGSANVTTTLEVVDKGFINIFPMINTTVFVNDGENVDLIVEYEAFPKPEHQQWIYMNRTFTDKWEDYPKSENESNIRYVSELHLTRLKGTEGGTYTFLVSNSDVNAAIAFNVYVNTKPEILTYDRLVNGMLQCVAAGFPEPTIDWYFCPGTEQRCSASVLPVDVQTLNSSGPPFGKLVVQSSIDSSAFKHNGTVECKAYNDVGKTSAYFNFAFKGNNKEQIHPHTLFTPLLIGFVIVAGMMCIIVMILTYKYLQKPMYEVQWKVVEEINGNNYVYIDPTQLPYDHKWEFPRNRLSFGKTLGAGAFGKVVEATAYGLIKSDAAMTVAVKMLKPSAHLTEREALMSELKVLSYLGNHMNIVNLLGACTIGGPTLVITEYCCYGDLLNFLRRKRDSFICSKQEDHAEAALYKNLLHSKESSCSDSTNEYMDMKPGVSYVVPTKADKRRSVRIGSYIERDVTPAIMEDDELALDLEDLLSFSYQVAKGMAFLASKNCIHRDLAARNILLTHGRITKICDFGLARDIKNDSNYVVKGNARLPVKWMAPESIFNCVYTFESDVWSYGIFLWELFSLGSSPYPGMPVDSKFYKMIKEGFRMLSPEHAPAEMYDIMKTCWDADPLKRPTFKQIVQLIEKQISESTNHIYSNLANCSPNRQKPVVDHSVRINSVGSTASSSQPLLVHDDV

| IC50 [nM] | Structure (SMILES) |
| --- | --- |
| 73 | COC(=O)NC1(c2nc(-c3ccc(C)c(NC(=O)c4cnc5ccccn45)c3)no2)CC(F)(F)C1 [F175, methyl (3,3-difluoro-1-(3-(3-(imidazo[1,2-a]pyridine-3-carboxamido)-4-methylphenyl)-1,2,4-oxadiazol-5-yl)cyclobutyl)carbamate] |
| 67 | Cc1ccc(-c2noc(C3CC(F)(F)C3)n2)cc1NC(=O)c1cnc2ccc(COCCF)cn12 [F176, N-(5-(5-(3,3-difluorocyclobutyl)-1,2,4-oxadiazol-3-yl)-2-methylphenyl)-6-((2-fluoroethoxy)methyl)imidazo[1,2-a]pyridine-3-carboxamide] |
